Reference: patent publication US8735414B2 (priority 2009, dated 2014)

Assays:
[1] = tested on: bicistronic HCV replicon (replicon RNA, GenBank Accession No. AJ242654); experiment: HCV Replicon Assay; assay type: cell-based; settings: Hepatitis C virus, 72 h, read-out: Replicon IC50

Row | SMILES | IC50 [1] | melting point
1 | CC(C)n1c(-c2ccc(S(=O)(=O)N[C@@H](C)C(F)(F)F)cn2)c(C#N)c2ccc(OC(F)F)cc21 [compound 359, 6-[3-cyano-6-(difluoromethoxy)-1-(propan-2-yl)-1H-indol-2-yl]-N-[(2S)-1,1,1-trifluoropropan-2-yl]pyridine-3-sulfonamide] | < 0.5 µM | 163 to 166 °C
2 | Cc1cc2c(cc1F)c(C(N)=O)c(-c1ccc(S(=O)(=O)N[C@H](C)C(F)(F)F)cn1)n2C1CCCC1 [compound 699, 1-cyclopentyl-5-fluoro-6-methyl-2-(5-{[(2R)-1,1,1-trifluoropropan-2-yl]sulfamoyl}pyridin-2-yl)-1H-indole-3-carboxamide] | < 0.5 µM | 243 to 245 °C
3 | Cc1ccc2c(c1)c(C#N)c(-c1ncc(S(=O)(=O)N[C@@H](C)C3CC3)cn1)n2CC1CC1 [compound 561, 2-[3-cyano-1-(cyclopropylmethyl)-5-methyl-1H-indol-2-yl]-N-[(1S)-1-cyclopropylethyl]pyrimidine-5-sulfonamide] | 0.5 to 2 µM | 174 to 178 °C
4 | CCn1c(-c2ccc(N(CCO)S(=O)(=O)C3CC3)nc2)c(C#N)c2ccc(OC(C)C)cc21 [compound 293, N-{5-[3-cyano-1-ethyl-6-(propan-2-yloxy)-1H-indol-2-yl]pyridin-2-yl}-N-(2-hydroxyethyl)cyclopropanesulfonamide] | 0.5 to 2 µM | 212 to 214 °C
5 | Cc1ccc2c(c1)c(C#N)c(-c1ccc(S(=O)(=O)NC(C)(C)C(F)(F)F)cn1)n2C1CCCC1 [compound 607, 6-(3-cyano-1-cyclopentyl-5-methyl-1H-indol-2-yl)-N-(1,1,1-trifluoro-2-methylpropan-2-yl)pyridine-3-sulfonamide] | < 0.5 µM | 176 to 181 °C
6 | Cc1cc2c(cc1F)c(C#N)c(-c1ccc(S(=O)(=O)NC3(C(F)(F)F)CC3)cn1)n2C1CCC1 [compound 613, 6-(3-cyano-1-cyclobutyl-5-fluoro-6-methyl-1H-indol-2-yl)-N-[1-(trifluoromethyl)cyclopropyl]pyridine-3-sulfonamide] | < 0.5 µM | 223 to 232 °C
7 | CCc1ccc2c(C#N)c(-c3ccc(S(=O)(=O)NC(C)C)cn3)n(C(C)C)c2c1 [compound 75, 6-[3-cyano-6-ethyl-1-(propan-2-yl)-1H-indol-2-yl]-N-(propan-2-yl)pyridine-3-sulfonamide] | < 0.5 µM | 185 to 186 °C
8 | Cc1ccc2c(C#N)c(-c3ccc(S(=O)(=O)NC4(C(F)(F)F)CC4)cn3)n(C3CCCC3)c2c1 [compound 190, 6-(3-cyano-1-cyclopentyl-6-methyl-1H-indol-2-yl)-N-[1-(trifluoromethyl)cyclopropyl]pyridine-3-sulfonamide] | < 0.5 µM | 199 to 210 °C
9 | C[C@H](NS(=O)(=O)c1cnc(-c2c(C#N)c3ccc(CC(F)F)cc3n2C2CCCC2)nc1)C1CC1 [compound 597, 2-[3-cyano-1-cyclopentyl-6-(2,2-difluoroethyl)-1H-indol-2-yl]-N-[(1S)-1-cyclopropylethyl]pyrimidine-5-sulfonamide] | < 0.5 µM | 181 to 189 °C
10 | Cc1cc2c(cc1F)c(C#N)c(-c1ccc(S(=O)(=O)NC(CF)CF)cn1)n2C1CCCC1 [compound 407, 6-(3-cyano-1-cyclopentyl-5-fluoro-6-methyl-1H-indol-2-yl)-N-(1,3-difluoropropan-2-yl)pyridine-3-sulfonamide] | < 0.5 µM | 211 to 213 °C
11 | CC(C)(NS(=O)(=O)c1ccc(-c2c(C(N)=O)c3cc(F)c(OC(F)F)cc3n2C2CCC2)nc1)C(F)(F)F [compound 729, 1-cyclobutyl-6-(difluoromethoxy)-5-fluoro-2-{5-[(1,1,1-trifluoro-2-methylpropan-2-yl)sulfamoyl]pyridin-2-yl}-1H-indole-3-carboxamide] | < 0.5 µM | 207 to 209 °C
12 | C[C@H](NS(=O)(=O)c1cnc(-c2c(C#N)c3ccc(OC(F)F)cc3n2C2CCCC2)nc1)C(F)(F)F [compound 326, 2-[3-cyano-1-cyclopentyl-6-(difluoromethoxy)-1H-indol-2-yl]-N-[(2S)-1,1,1-trifluoropropan-2-yl]pyrimidine-5-sulfonamide] | < 0.5 µM | 231 to 232 °C
13 | CCn1c(-c2ccc(N(CC(F)F)S(=O)(=O)C3CC3)nc2)c(C#N)c2ccc(OC(C)C)cc21 [compound 292, N-{5-[3-cyano-1-ethyl-6-(propan-2-yloxy)-1H-indol-2-yl]pyridin-2-yl}-N-(2,2-difluoroethyl)cyclopropanesulfonamide] | 0.5 to 2 µM | 232 to 235 °C
14 | Cc1ccc2c(C#N)c(-c3ncc(S(=O)(=O)NC(C)C)cn3)n(C(C)C)c2c1 [compound 167, 2-[3-cyano-6-methyl-1-(propan-2-yl)-1H-indol-2-yl]-N-(propan-2-yl)pyrimidine-5-sulfonamide] | < 0.5 µM | 205 to 206 °C
15 | CC(C)(C)S(=O)(=O)Nc1ccc(-c2c(C(N)=O)c3cc(F)c(OC(F)F)cc3n2C2CCCCC2)cn1 [compound 1063, 2-{6-[(tert-butylsulfonyl)amino]pyridin-3-yl}-1-cyclohexyl-6-(difluoromethoxy)-5-fluoro-1H-indole-3-carboxamide] | < 0.5 µM | 296 to 297 °C
16 | Cc1cc2c(cc1F)c(C#N)c(-c1ccc(S(=O)(=O)N[C@@H](C)C(F)(F)F)cn1)n2C1CCCC1 [compound 408, 6-(3-cyano-1-cyclopentyl-5-fluoro-6-methyl-1H-indol-2-yl)-N-[(2S)-1,1,1-trifluoropropan-2-yl]pyridine-3-sulfonamide] | < 0.5 µM | 168 to 171 °C
17 | CC(C)NS(=O)(=O)c1cnc(-c2c(C#N)c3cc(F)ccc3n2CC2CC2)nc1 [compound 303, 2-[3-cyano-1-(cyclopropylmethyl)-5-fluoro-1H-indol-2-yl]-N-(propan-2-yl)pyrimidine-5-sulfonamide] | < 0.5 µM | 215 to 220 °C
18 | CCc1cc2c(cc1F)c(C#N)c(-c1ccc(S(=O)(=O)N[C@@H](C)C(F)(F)F)cn1)n2-c1ncc(Cl)cn1 [compound 942, 6-[1-(5-chloropyrimidin-2-yl)-3-cyano-6-ethyl-5-fluoro-1H-indol-2-yl]-N-[(2S)-1,1,1-trifluoropropan-2-yl]pyridine-3-sulfonamide] | < 0.5 µM | 222 to 229 °C
19 | Cc1cc2c(cc1F)c(C#N)c(-c1ccc(S(=O)(=O)N[C@@H](C)C(F)(F)F)cn1)n2-c1cscn1 [compound 960, 6-[3-cyano-5-fluoro-6-methyl-1-(1,3-thiazol-4-yl)-1H-indol-2-yl]-N-[(2S)-1,1,1-trifluoropropan-2-yl]pyridine-3-sulfonamide] | < 0.5 µM | 184 to 189 °C
20 | N#Cc1c(-c2ccc(S(=O)(=O)NC(CF)CF)cn2)n(C2CCCC2)c2ccc(OC(F)F)cc12 [compound 33, 6-[3-cyano-1-cyclopentyl-5-(difluoromethoxy)-1H-indol-2-yl]-N-(1,3-difluoropropan-2-yl)pyridine-3-sulfonamide] | < 0.5 µM | 172 to 175 °C
21 | COc1ccc2c(c1)c(C#N)c(-c1ncc(S(=O)(=O)N[C@@H](C)C(F)(F)F)cn1)n2C1CCC1 [compound 569, 2-(3-cyano-1-cyclobutyl-5-methoxy-1H-indol-2-yl)-N-[(2S)-1,1,1-trifluoropropan-2-yl]pyrimidine-5-sulfonamide] | 0.5 to 2 µM | 203 to 205 °C
22 | N#Cc1c(-c2ccc(S(=O)(=O)NC(CF)CF)cn2)n(-c2ccccn2)c2ccc(Cl)cc12 [compound 443, 6-[5-chloro-3-cyano-1-(pyridin-2-yl)-1H-indol-2-yl]-N-(1,3-difluoropropan-2-yl)pyridine-3-sulfonamide] | < 0.5 µM | 187 to 188 °C
23 | Cc1ccc2c(c1)c(C#N)c(-c1ccc(S(=O)(=O)N[C@@H](C)C3CC3)cn1)n2C(C)C [compound 564, 6-[3-cyano-5-methyl-1-(propan-2-yl)-1H-indol-2-yl]-N-[(1S)-1-cyclopropylethyl]pyridine-3-sulfonamide] | < 0.5 µM | 170 to 173 °C
24 | CCn1c(-c2ccc(NS(=O)(=O)C(C)C)cn2)c(C#N)c2ccc(OC(C)C)cc21 [compound 286, N-{6-[3-cyano-1-ethyl-6-(propan-2-yloxy)-1H-indol-2-yl]pyridin-3-yl}propane-2-sulfonamide] | 0.5 to 2 µM | 180 to 185 °C
25 | CC(C)(C)NS(=O)(=O)c1ccc(-c2c(C#N)c3cc(F)c(O)cc3n2C2CCC2)nc1 [compound 719, N-tert-butyl-6-(3-cyano-1-cyclobutyl-5-fluoro-6-hydroxy-1H-indol-2-yl)pyridine-3-sulfonamide] | 0.5 to 2 µM | 242 to 245 °C
26 | C[C@H](NS(=O)(=O)c1cnc(-c2c(C#N)c3ccc(CC(F)F)cc3n2C2CCCC2)nc1)C(F)(F)F [compound 600, 2-[3-cyano-1-cyclopentyl-6-(2,2-difluoroethyl)-1H-indol-2-yl]-N-[(2S)-1,1,1-trifluoropropan-2-yl]pyrimidine-5-sulfonamide] | < 0.5 µM | 240 to 246 °C
27 | CC(C)NS(=O)(=O)c1cnc(-c2c(C#N)c3ccc(OC(F)(F)F)cc3n2C2CCCC2)nc1 [compound 117, 2-[3-cyano-1-cyclopentyl-6-(trifluoromethoxy)-1H-indol-2-yl]-N-(propan-2-yl)pyrimidine-5-sulfonamide] | 0.5 to 2 µM | 216 to 218 °C
28 | Cc1cc(S(=O)(=O)N[C@@H](C)C(F)(F)F)cnc1-c1c(C#N)c2cc(F)c(OC(F)F)cc2n1C1CCC1 [compound 827, 6-[3-cyano-1-cyclobutyl-6-(difluoromethoxy)-5-fluoro-1H-indol-2-yl]-5-methyl-N-[(2S)-1,1,1-trifluoropropan-2-yl]pyridine-3-sulfonamide] | < 0.5 µM | 150 to 155 °C
